58 compounds from ChEMBL document CHEMBL5360625, “Design, Synthesis, and Antitumor Activity Evaluation of 2-Arylmethoxy-4-(2,2'-dihalogen-substituted biphenyl-3-ylmethoxy) Benzylamine Derivatives as Potent PD-1/PD-L1 Inhibitors” (J Med Chem, 2023) can be followed below.

By IC50 is commonly meant the concentration at which inhibition is half-maximal. Higher therefore signals weaker potency.

Sequence of Programmed cell death protein 1/Programmed cell death 1 ligand 1 (Q15116 whole entry): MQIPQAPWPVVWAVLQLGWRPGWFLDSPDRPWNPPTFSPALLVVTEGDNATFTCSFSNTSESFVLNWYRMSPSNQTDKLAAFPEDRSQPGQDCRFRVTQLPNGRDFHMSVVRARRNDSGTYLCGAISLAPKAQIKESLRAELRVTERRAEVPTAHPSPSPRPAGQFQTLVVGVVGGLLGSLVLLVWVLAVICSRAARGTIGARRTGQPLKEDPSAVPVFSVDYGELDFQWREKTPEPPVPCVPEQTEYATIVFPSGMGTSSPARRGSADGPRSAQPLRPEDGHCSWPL
Sequence of Programmed cell death protein 1/Programmed cell death 1 ligand 1 (Q9NZQ7 whole entry): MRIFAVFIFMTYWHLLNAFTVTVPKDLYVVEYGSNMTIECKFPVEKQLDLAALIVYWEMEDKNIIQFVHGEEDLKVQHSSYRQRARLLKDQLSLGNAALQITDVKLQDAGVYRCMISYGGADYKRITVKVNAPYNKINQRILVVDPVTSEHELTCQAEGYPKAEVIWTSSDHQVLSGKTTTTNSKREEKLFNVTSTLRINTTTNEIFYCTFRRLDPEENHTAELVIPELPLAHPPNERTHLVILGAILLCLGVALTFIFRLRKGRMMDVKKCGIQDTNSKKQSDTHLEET

The first data set deals with PBMC. Nature of the data set: Cytotoxicity against human PBMC cells assessed as reduction in cell viability at 1 to 4 uM measured after 48 hrs by CCK-8 assay. Conditions: dose 1-4 µM. It counts as toxicity, cell-based.
In the case of `N#Cc1cccc(COc2cc(OCc3cccc(-c4ccccc4F)c3Cl)ccc2CNCCO)c1`, the Activity entry is “Non-Toxic”.

For the compound `N#Cc1cncc(COc2cc(OCc3cccc(-c4ccccc4F)c3Cl)ccc2CN[C@@H](CO)C(=O)O)c1`, the Activity result is listed as “Non-Toxic”.

As to `N#Cc1cccc(COc2cc(OCc3cccc(-c4ccccc4F)c3Cl)ccc2CN2CCC(O)C2)c1` (stereo not drawn), the Activity result is listed as “Non-Toxic”.

As for `Cc1c(COc2ccc(CNCCO)c(OCc3cncc(C#N)c3)c2)cccc1-c1ccccc1F`, the Activity result is listed as “Non-Toxic”.

For the compound `COc1nc(OCc2cccc(-c3ccccc3)c2C)ccc1CNCCNC(C)=O`, the Activity result is on record as “Non-Toxic”.

As for `CC(=O)NCCNCc1ccc(OCc2cccc(-c3ccccc3F)c2C)cc1OCc1cncc(C#N)c1`, the Activity entry was “Non-Toxic”.

The next data set addresses Programmed cell death protein 1/Programmed cell death 1 ligand 1 (Homo sapiens, UniProt Q9NZQ7). Nature of the data set: Inhibition of PD-1/PD-L1 interaction (unknown origin) incubated for 1 hr by HTRF assay. It counts as protein-complex assay.
Conditions: not given
The compound `COc1c(COc2ccc(CN[C@@H](CO)C(=O)O)c(OCc3cccc(C#N)c3)c2)cccc1-c1ccccc1` had an IC50 of 2.6 µM. In other words, the single-digit micromolar range.

Consider `COc1c(COc2ccc(CN3C[C@@H](O)C[C@@H]3C(=O)O)c(OCc3cccc(C#N)c3)c2)cccc1-c1ccccc1`, for which half-maximal inhibition (IC50) was put at 21.8 µM. This IC50 lies about 8.4-fold higher than the previous one.

In turn, `COc1c(COc2ccc(CNCCNC(C)=O)c(OCc3ccc(F)cc3)c2)cccc1-c1ccccc1` yielded an IC50 greater than 32 µM.

In turn, `N#Cc1cccc(COc2cc(OCc3cccc(-c4ccccc4F)c3Cl)ccc2CNCCO)c1` came in with an IC50 of 12.7 µM. That is a double-digit micromolar value.

Consider `COc1c(COc2ccc(CNCCO)c(OCc3cccc(C#N)c3)c2)cccc1-c1ccccc1`, for which the IC50 was 2.4 µM.

For `COc1c(NCc2ccc(OCc3ccc(F)cc3)c(CNCCO)c2)cccc1-c1ccc2ccccc2c1`, the IC50 was greater than 32 µM.

Compound `COc1c(COc2ccc(CNCCNC(C)=O)c(OCc3ccc(C#N)cc3)c2)cccc1-c1ccccc1` showed an IC50 of 22.7 µM.

`COc1c(COc2ccc(CNCCNC(C)=O)c(OCc3cccc(C#N)c3)c2)cccc1-c1ccccc1Cl` came in with an IC50 of 3.6 µM.

For `COc1c(NCc2ccc(OCc3cccc(C#N)c3)c(CNCCNC(C)=O)c2)cccc1-c1ccccc1`, the IC50 is greater than 32 µM.

The compound `COc1c(COc2ccc(CN3CCC[C@H]3C(=O)O)c(OCc3cccc(C#N)c3)c2)cccc1-c1ccccc1` showed an IC50 of 18.9 µM. This lies in the double-digit micromolar range.

`COc1c(COc2ccc(CNCCNC(C)=O)c(OCc3cccc(C#N)c3)c2)cccc1-c1cccc(F)c1` showed an IC50 of 5.5 µM. This IC50 lies about 3.4-fold lower than the previous one.

Compound `COc1c(NCc2ccc(OCc3cccc(C#N)c3)c(CNCCO)c2)cccc1-c1ccc2cc[nH]c2c1` came in with an IC50 greater than 32 µM.

Take `COc1c(COc2ccc(CNCCNC(C)=O)c(OCc3cccc(C#N)c3)c2)cccc1-c1ccc(F)cc1`: the IC50 was found to be 16 µM. This counts as double-digit micromolar.

The compound `COc1c(COc2ccc(OCc3cccc(C#N)c3)c(CNCCO)c2)cccc1-c1ccccc1` had an IC50 greater than 32 µM.

The compound `COc1c(COc2ccc(CNCCNC(C)=O)c(OCc3cccc(C)c3)c2)cccc1-c1ccccc1` showed an IC50 of 18.3 µM.

Regarding `Cc1c(COc2ccc(CNCCO)c(OCc3cccc(C#N)c3)c2)cccc1-c1ccccc1F`, the midpoint of inhibition, the IC50, lay at 37.6 µM.

Take `COc1c(COc2ccc(CNCCNC(C)=O)c(OCc3cccc(F)c3)c2)cccc1-c1ccccc1`: the IC50 came out at 11.3 µM.

The compound `COc1c(COc2ccc(CN[C@H](C(=O)O)C(C)O)c(OCc3cccc(C#N)c3)c2)cccc1-c1ccccc1` (single isomer, unassigned) displayed an IC50 of 17.3 µM.

As to `COc1c(COc2ccc(CNCCNC(C)=O)c(OCc3cccc(C#N)c3)c2)cccc1-c1ccccc1F`, the IC50 worked out at 2.4 µM.

`COc1c(COc2ccc(CNCCNC(C)=O)c(OCc3cccnc3)c2)cccc1-c1ccccc1` came in with an IC50 of 9.4 µM.

Regarding `COc1c(COc2ccc(CNCCNC(C)=O)c(OCc3cccnc3F)c2)cccc1-c1ccccc1`, the IC50 is 12.9 µM.

In the case of `COc1cc(COc2cc(OCc3cccc(-c4ccccc4)c3OC)ccc2CNCCNC(C)=O)ccn1`, inhibition was half-maximal at 13.7 µM (IC50).

In turn, `COc1c(NCc2ccc(OCc3cccc(C#N)c3)c(CNCCNC(C)=O)c2)cccc1-c1ccc2ccccc2c1` showed an IC50 greater than 32 µM.

In turn, `COc1c(COc2ccc(CNCCNC(C)=O)c(OCc3cncc(C#N)c3)c2)cccc1-c1ccccc1F` showed an IC50 of 1000 µM.

`COc1c(NCc2ccc(OCc3ccc(F)cc3)c(CNCCNC(C)=O)c2)cccc1-c1ccc2cc[nH]c2c1` returned an IC50 greater than 32 µM.

`N#Cc1cccc(COc2cc(OCc3cccc(-c4ccccc4F)c3F)ccc2CNCCO)c1` displayed an IC50 of 130 µM.

As for `N#Cc1cncc(COc2cc(OCc3cccc(-c4ccccc4F)c3Cl)ccc2CN[C@@H](CO)C(=O)O)c1`, the IC50 came to 7.3 µM. This IC50 lies about 18-fold lower than the previous one.

In the case of `COc1c(COc2cc(OCc3cncc(C#N)c3)c(CNCCNC(C)=O)cc2Cl)cccc1-c1ccccc1F`, 468 µM corresponded to half-maximal inhibition (IC50).

Compound `COc1c(COc2ccc(CNCCNC(C)=O)c(OCc3cccc(C#N)c3)c2)cccc1-c1ccc2c(c1)OCCO2` gave an IC50 of 2.9 µM.

Consider `COc1c(COc2ccc(CN[C@@H](CO)C(=O)O)c(OCc3cncc(C#N)c3)c2)cccc1-c1ccccc1F`, for which half-maximal inhibition (IC50) required 616 µM.

`COc1c(COc2ccc(OCc3cccc(C#N)c3)c(CNCCNC(C)=O)c2)cccc1-c1ccccc1` had an IC50 greater than 32 µM.

`COC(=O)c1ccc(COc2ccc(CNc3cccc(-c4ccccc4)c3OC)cc2CNCCO)cc1` registered an IC50 greater than 32 µM.

As for `COc1c(COc2ccc(CNCCO)c(OCc3cccc(C#N)c3)c2)cccc1-c1ccccc1F`, it took 1660 µM to reach half-maximal inhibition (IC50).

Regarding `N#Cc1cccc(COc2cc(OCc3cccc(-c4ccccc4F)c3Cl)ccc2CN2CCC(O)C2)c1` (stereo not drawn), the IC50 turned out to be 19.2 µM.

In the case of `COc1c(NCc2ccc(OCc3ccc(F)cc3)c(CNCCO)c2)cccc1-c1ccc2cc[nH]c2c1`, the IC50 was greater than 32 µM.

The compound `COc1c(NCc2ccc(OCc3cccc(C#N)c3)c(CNCCO)c2)cccc1-c1ccc2ccccc2c1` registered an IC50 greater than 32 µM.

In turn, `COc1c(COc2ccc(CNCCNC(C)=O)c(OCc3cccc(C#N)c3)c2)cccc1-c1ccccc1` gave an IC50 of 23.3 µM.

Turning to `COc1c(COc2ccc(CNCCO)c(OCc3cncc(C#N)c3)c2)cccc1-c1ccccc1F`, the IC50 was found to be 417 µM. This IC50 is about 18-fold higher than that of the compound before.

As to `Cc1c(COc2ccc(CNCCO)c(OCc3cncc(C#N)c3)c2)cccc1-c1ccccc1F`, it took 8.5 µM to reach half-maximal inhibition (IC50).

Compound `COc1c(COc2ccc(CNCCO)c(OCc3cncc(C#N)c3)c2)cccc1-c1ccccc1` yielded an IC50 of 0.8 µM.

Regarding `COc1c(COc2cc(OCc3cncc(C#N)c3)c(CNCCO)cc2Cl)cccc1-c1ccccc1F`, half-maximal inhibition (IC50) was put at 348 µM.

As for `N#Cc1cccc(COc2cc(OCc3cccc(-c4ccccc4F)c3Cl)ccc2CN2CC(C(=O)O)C2)c1`, the IC50 worked out at 33.6 µM. Compared with the last compound, the IC50 is about 10-fold lower.

The compound `COc1c(COc2ccc(CNCC(=O)O)c(OCc3cccc(C#N)c3)c2)cccc1-c1ccccc1` returned an IC50 of 5.5 µM.

As to `N#Cc1cccc(COc2cc(OCc3cccc(-c4ccccc4F)c3F)ccc2CN[C@@H](CO)C(=O)O)c1`, half-maximal inhibition (IC50) required 115 µM.

Consider `COc1c(COc2ccc(CN[C@@H](CO)C(=O)O)c(OCc3cccc(C#N)c3)c2)cccc1-c1ccccc1F`, for which half-maximal inhibition (IC50) was put at 2130 µM.

Turning to `COc1c(COc2ccc(CN3CC(C(=O)O)C3)c(OCc3cncc(C#N)c3)c2)cccc1-c1ccccc1`, the IC50 is 4.7 µM.

`COc1c(NCc2ccc(OCc3cccc(C#N)c3)c(CNCCO)c2)cccc1-c1ccccc1` returned an IC50 of 32 µM.

The compound `N#Cc1cccc(COc2cc(OCc3cccc(-c4ccccc4F)c3)ccc2CNCCO)c1` displayed an IC50 greater than 500 µM.

`COc1c(NCc2ccc(OCc3ccc(F)cc3)c(CNCCO)c2)cccc1-c1ccccc1`: the IC50 is greater than 32 µM.

The compound `COc1c(COc2ccc(CNCCO)c(OCc3ccc(F)cc3)c2)cccc1-c1ccccc1` showed an IC50 of 8.6 µM.

`COc1c(COc2ccc(CNCCNC(C)=O)c(OCc3cncc(C#N)c3)c2)cccc1-c1ccccc1` came in with an IC50 of 1.6 µM.

On to `CC(=O)NCCNCc1ccc(OCc2cccc(-c3ccccc3F)c2C)cc1OCc1cncc(C#N)c1`, for which half-maximal inhibition (IC50) required 24.3 µM.

In turn, `COc1c(COc2ccc(CNCCNC(C)=O)c(OCc3cccc(C#N)c3)c2)cccc1-c1ccc2ccccc2c1` gave a half-maximal inhibitory concentration (IC50) of 16 µM.

`COc1c(COc2ccc(CN3CCC[C@@H]3C(=O)O)c(OCc3cccc(C#N)c3)c2)cccc1-c1ccccc1` had an IC50 of 19.4 µM. The IC50 values of the last two compounds are within 1.5-fold of each other.

`COc1c(COc2ccc(CN3CCC(O)C3)c(OCc3cncc(C#N)c3)c2)cccc1-c1ccccc1` (stereo not drawn) returned an IC50 of 6.2 µM.

`COc1c(COc2ccc(CN[C@H](CO)C(=O)O)c(OCc3cccc(C#N)c3)c2)cccc1-c1ccccc1` showed an IC50 of 3.2 µM. Compared with the last compound, the IC50 is about 1.9-fold lower.

`COc1c(NCc2ccc(OCc3ccc(C(=O)O)cc3)c(CNCCO)c2)cccc1-c1ccccc1`: the IC50 is greater than 32 µM.
